Laboratory results published in patent publication US20250049747A1, “USE OF HYPERPOLARIZING AGENTS ALONE AND IN COMBINATION WITH OTHER THERAPEUTIC AGENTS FOR TREATING CANCERS INCLUDING GLIOBLASTOMA” (Trustees of Tufts College, priority 2021, published 2025).
Several values for one entry are separate records, joined by “and”; a condition that tells them apart may be missing. Identical values can stand only once. Entries after “also recorded” stand apart in the source; their conditions may differ.

Columns and labels:
[1] = tested on: NG108-15 cells; assay: Growth and FUCCI assays in NG108-15 cells (cell counts, cell cycle, recovery test); conditions: for fold decrease in proliferation compared to control: high serum; for FUCCI cell cycle proportion: NG108-15, day 6
Experimental: Cells were plated in 96 well plates at a low confluence and drugs were added fresh every other day for 6 days. Some studies removed the drug at 6 days and added media with no drug for an additional 4 days to test for proliferation. Images of the cells were taken every day and a cell profiler pipeline was used to count the cells and determine the ratio of cells in each part of the cell cycle. […] Cell Culture. […] Cells were disassociated with Accutase and passaged when 70% confluent and maintained at 37° C. with 5% C02. Media was changed every two days. […] All drug screens including controls were done using 0.02% DMSO in the high serum Fluorobrite DMEM.
Growth and FUCCI assays. Both cell lines were plated at 5,000 cells per mL into black-walled flat-bottom 96-well plates coated with 1/50 dilution of Matrigel. Images of cells were taken on Day 0 and every subsequent day for 10 days using a Zeiss Axio1 fitted with an on-stage incubator and kept at 37° C. with 5% C02. A 5× objective was used along with filters for YFP, RFP, and CFP and careful calibration of each plate was done to ensure that the same fields of view were imaged each day. Drugs were added after the initial images were taken and then changed every two days until day 6. For recovery experiments, after imaging on day 6, all drugs were removed, and cells were put into imaging media without any added drugs. This media was changed every two days until day 10. Analysis of growth and snap shots of FUCCI reporters over the 6 days or 10 days was done using a CellProfiler [72]pipeline designed by the Broad. The fractional difference in cell number was calculated by dividing the total number of cells each day by the total number of cells from day 0. The ratio of cells in each cell cycle stage every day was determined by counting all the nuclei of one color and dividing it by the total number of nuclei. Blind quality control was done on all the images to make sure that any fibers or image artifacts were not incorrectly counted by the program.

[2] = tested on: NG108-15 cells; assay: Automated patch-clamp electrophysiology, resting membrane potential; type: cell-based, mouse/rat; conditions: NG108-15, immediately after application
Experimental: Electrophysiology. SyncroPatch 384PE platform (Nanion Technologies®) was used to perform the automated patch-clamp experiments. This system provides giga-ohm resistance seals during simultaneous recording in the 384-well plate format. Cells were harvested 48-72 h after seeding 1-2×10^6 cells in T175 culture flasks (Falcon), then cells were rinsed with PBS (5 mL) and treated with 3 mL Accutase ([…] technologies) for 5 min at 37° C., re-suspended in 10 mL of serum-free media and pelleted at 1000 rpm for 3 min at RT. […] The cells were kept until the moment of the experiment in a temperature controlled dedicated reservoir at 10° C. and shaken at 200 rpm as described. The experiments were performed within one hour after the harvesting process. The assays were carried in single-hole chips with resistances between 4-5 MΩ after priming the chip with the following solutions (in mM), physiological extracellular solution (pECS) 10 HEPES, 140 NaCl, 5 Glucose, 4 KCl, 2 CaCl2), 1 MgCl2, 295-305 mOsm pH 7.4 (NaOH). Internal recording solution (in mM) 20 EGTA, 50 KCl, 10 NaCl, 60 KF, 10 HEPES at pH 7.2, and 285 mOsm. 15 μL of the cell suspension (50% v/v pECS/Medium no serum) was added to each well to a final density of 50-80K cells/mL. Cell capture was promoted by holding a negative pressure of −100 mbar for 20 s. After successive hyperpolarization steps from −30 mV to −100 mV enhanced the capture the seal followed by the transient addition of a high Ca2+ extracellular solution (80 mM NaCl, 3 mM KCl, 35 mM CaCl2), 10 mM MgCl2, 10 mM HEPES at pH 7.4 and 298 mOsm. High Ca2+ solution is washed out by successive external exchanges replacing half of the volume of the well each time with the external recording solution. All recording solutions were prepared with ultrapure MilliQ water (18 MD-cm). After the formation of the Giga-seal, a 250 mbar pressure was applied to break the membrane patch. Once in whole-cell configuration, different voltage protocols were applied to dissect different conductances in NG108-15 cells. Signals were recorded in the current-clamp mode “I=0” (passive conditions) where no current was injected, to monitor the membrane potential. The membrane potentials were recorded for seven sweeps of 1 sec, with an inter-sweep time of 10 s. The average membrane potentials of the 7 sweeps were reported.
Electrophysiology of NG108-15 Cells Show Changes in Resting Membrane Potential Induced by Treatment. […] Untreated cells were patched, baseline measurements were taken and then the drugs were added and the changes in the cell Vmem were recorded.

[3] = breast cancer xenograft model in immunodeficient mice; cited from earlier work
[4] = Reported clinical pharmacokinetics and blood-brain barrier penetrance (literature); conditions: human, in vivo; pantoprazole 240 mg/day, if proportional to the 30 mg/day dose
[5] = human, in vivo; cited from earlier work
[6] = tested on: U87 cells; assay: Antibody staining, BrdU and senescence assays in U87 cells; type: cell-based, human; conditions: U87, 6 days
Experimental: Antibody Staining, BrdU and Senescence Assays. NG108-15 cells were plated on PEI and Matrigel coated plates at 15,000 or 30,000 cells/mL, U87 cells at 10,000 cells/mL and grown in imaging media for 6 days with drug treatment. Fresh media was added every 2 days. On day 6, cells were fixed with 4% formaldehyde in PBS for 30 minutes for all antibody staining, except for BrdU which was fixed for 15 minutes, and for the senescence assay which was fixed for 20 min using the Senescence Beta-Galactosidase Staining Kit (9860, CellSignaling) and thereafter stained according to manufacturer's protocol. After fixing, cells were washed twice with PBS, and were permeabilized in PBS with 0.3% Triton-X for 15 min then washed again twice with PBS. The cells for the BrdU assay were additionally treated with 1N HCl for 10 min on ice, followed by a treatment with 2N HCl for 50 min at room temp. Cells were then blocked with standard blocking buffer comprised of TBS containing 10% goat serum, 0.1% BSA, and with 0.05% Tween 20 or without detergent for antibodies against phosphorylated proteins or monoclonal antibodies except for Anti-YAP and Anti-BrdU staining, which were done according to manufacturer's protocol. […] Cells were imaged with an EVOS M7000 system, with at least 50% of each well in a 96 well plate imaged and analyzed using a CellProfiler pipeline for measuring integrated intensity, mean intensity, or nuclear to cytoplasmic ratio of mean intensities.

| Cmax [4] | Compound | fold decrease in proliferation compared to control ([1]; NG108-15, 6 days of treatment, NS1643 at 20 μM) | fold decrease in proliferation compared to control ([1]; NG108-15, 6 days of treatment, NS1643 at 50 μM) [fold] | FUCCI cell cycle proportion [1] | change in resting membrane potential compared to control [2] | toxicity on the heart or on normal breast epithelial cells [3] | cell proliferation compared to control (words) ([1]; NG108-15, 6 days of treatment) | recovery of proliferation after treatment removed ([1]; NG108-15, drugs removed at day 6, followed to day 10) | blood brain barrier penetrance [5] [%] | NFM and NSE [6] | YAP nuclear to cytoplasmic ratio [6] | astrocytic differentiation markers [6] |
| --- | --- | --- | --- | --- | --- | --- | --- | --- | --- | --- | --- | --- |
| – | O=C(Nc1cc(C(F)(F)F)ccc1O)Nc1cc(C(F)(F)F)ccc1O [NS1643] | about 1.6 fold | ~2.4 | did not seem to affect the cell cycle proportion | significantly hyperpolarized | did not show any overt toxicity | – | – | – | – | – | – |
| 42000 ng/mL and ~110 µM | COc1ccnc(C[S+]([O-])c2nc3ccc(OC(F)F)cc3[nH]2)c1OC (centres unmarked) [Pantoprazole, pantoprazole] | – | – | increase in cells arrested at late S phase; also recorded: increases the proportion of cells in early S | did not have an immediate effect | – | very significant decrease in cell proliferation | immediately re-entered the cell cycle | 2 | increased | not to have a significant effect | increased |
